Source: patent US10231453B2, “5-substituted imidazole derivatives” (BAYER CROPSCIENCE AKTIENGESELLSCHAFT, priority 2015, dated 2019)
Where two headings read alike, the source gives them in different places.

Tests used:
[1] = Measurement of LogP values by HPLC on reversed phase columns (EEC directive 79/831 Annex V.A8); format: physicochemical; conditions: method [a]: LC-UV, acidic range, 0.1% formic acid in water and acetonitrile as eluent; Table 1
Protocol: Measurement of Log P values was performed as outlined above.

Botrytis cinerea = test: In vivo preventive test on Botrytis cinerea (grey mould) on gherkin, Examples B, Q1 and R2; conditions: Botrytis cinerea; for pest or weed control at 100 ppm: Example R2, rate of application 100 ppm
Puccinia recondita = test: In vivo preventive test on Puccinia recondita (brown rust on wheat), Examples C and R3; conditions: Puccinia recondita, 264 h, preventive spray, evaluated 11 days after inoculation
Pyrenophora teres = test: In vivo preventive test on Pyrenophora teres (net blotch on barley), Examples D, Q2 and R4; conditions: Pyrenophora teres, 336 h; for pest or weed control at 100 ppm: Example R4, rate of application 100 ppm
Septoria tritici = test: In vivo preventive test on Septoria tritici (leaf spot on wheat), Examples E, Q3 and R5; conditions: Zymoseptoria tritici, 576 h, preventive spray, evaluated 24 days after inoculation
Sphaerotheca fuliginea = test: In vivo preventive test on Sphaerotheca fuliginea (powdery mildew on cucurbits), Examples F and R6; conditions: Podosphaera fuliginea, 360 h, preventive spray, evaluated 15 days after inoculation
Uromyces appendiculatus = test: In vivo preventive test on Uromyces appendiculatus (bean rust), Examples G and R7; conditions: 264 h, preventive spray, evaluated 11 days after inoculation
Alternaria solani = test: In vivo preventive Alternaria test (tomatoes), Example H; conditions: 72 h, 100 ppm of active ingredient, preventive spray, evaluated 3 days after inoculation, read-out: efficacy
Phakopsora pachyrhizi = test: In vivo preventive Phakopsora test (soybeans), Example I; conditions: 168 h, 100 ppm of active ingredient, preventive spray, evaluated 7 days after inoculation, read-out: efficacy
[2] = test system: Blumeria graminis fsp. hordei; test: In vivo preventive Blumeria test (barley), Example K; conditions: 168 h, 500 ppm of active ingredient, preventive spray, evaluated 7 days after inoculation, read-out: efficacy
From the text: After the spray coating has been dried, the plants are dusted with spores of Blumeria graminis fsp. hordei.

Fusarium culmorum = test: In vivo preventive Fusarium culmorum test (wheat), Example L; conditions: 120 h, 500 ppm of active ingredient, preventive spray, evaluated 5 days after inoculation, read-out: efficacy
Protocol: After the spray coating has been dried, the plants are slightly injured by using a sandblast and afterwards they are sprayed with a conidia suspension of Fusarium culmorum.
The test is evaluated 5 days after the inoculation.

Fusarium graminearum = test: whole plant or invertebrate; format: in vivo; conditions: in Hordeum vulgare, 120 h, read-out: efficacy
Leptosphaeria nodorum = test: In vivo preventive Leptosphaeria nodorum test (wheat), Example N; conditions: Parastagonospora nodorum, 192 h, 500 ppm of active ingredient, preventive spray, evaluated 8 days after inoculation, read-out: efficacy
From the text: After the spray coating has been dried, the plants are sprayed with a spore suspension of Leptosphaeria nodorum.

[3] = test system: Fusarium nivale (var. majus); test: In vivo preventive Fusarium nivale (var. majus) test (wheat), Example O; conditions: Microdochium nivale, 120 h, 500 ppm of active ingredient, preventive spray, evaluated 5 days after inoculation, read-out: efficacy
From the text: After the spray coating has been dried, the plants are slightly injured by using a sandblast and afterwards they are sprayed with a conidia suspension of Fusarium nivale (var. majus).

Pyricularia oryzae = test: whole plant or invertebrate; format: in vivo; conditions: 192 h, read-out: efficacy
Venturia inaequalis = test: In vivo preventive Venturia test (apples), Example J; conditions: 240 h, read-out: efficacy
Protocol: After the spray coating has dried on, the plants are inoculated with an aqueous conidia suspension of the causal agent of apple scab (Venturia inaequalis) and then remain for 1 day in an incubation cabinet at approximately 20° C. and a relative atmospheric humidity of 100%.
The plants are then placed in a greenhouse at approximately 21° C. and a relative atmospheric humidity of approximately 90%.
The test is evaluated 10 days after the inoculation.

Alternaria brassicae = test: In vivo preventive test on Alternaria brassicae (leaf spot on radish), Examples A and R1; conditions: Alternaria brassicae, 144 h
[4] = 500 ppm of active ingredient, preventive spray, evaluated 4 to 5 days after inoculation, read-out: efficacy
[5] = Example R2, rate of application 500 ppm, read-out: Efficacy in %
[6] = 500 ppm of active ingredient, wheat, read-out: efficacy
[7] = Example R3, wheat, read-out: Efficacy in %
[8] = Example R3, wheat, 500 ppm, read-out: Efficacy in %
[9] = 500 ppm of active ingredient, preventive spray, evaluated 14 days after inoculation, read-out: efficacy
[10] = Example R4, rate of application 500 ppm, read-out: Efficacy in %
[11] = Example R5, wheat, read-out: Efficacy in %
[12] = Example R5, wheat, 500 ppm, read-out: Efficacy in %
[13] = 500 ppm of active ingredient, gherkin, read-out: efficacy
[14] = 500 ppm of active ingredient, bean, read-out: efficacy
[15] = Example R7, bean, read-out: Efficacy in %
[16] = Example R7, bean, 500 ppm, read-out: Efficacy in %
[17] = 500 ppm of active ingredient, preventive spray, evaluated 6 days after inoculation, read-out: efficacy

Row | SMILES | chromatographic logP [1] | pest or weed control at 500 ppm (Botrytis cinerea; [4]) [%] | pest or weed control at 100 ppm (Botrytis cinerea; read-out: Efficacy in %) [%] | pest or weed control at 500 ppm (Botrytis cinerea; [5]) [%] | pest or weed control at 500 ppm (Puccinia recondita; [6]) [%] | pest or weed control at 100 ppm (Puccinia recondita; [7]) [%] | pest or weed control at 500 ppm (Pyrenophora teres; [9]) [%] | pest or weed control at 500 ppm (Septoria tritici; [6]) [%] | pest or weed control at 500 ppm (Sphaerotheca fuliginea; [13]) [%] | pest or weed control at 500 ppm (Uromyces appendiculatus; [14]) [%] | pest or weed control at 100 ppm (Alternaria solani) [%] | pest or weed control at 100 ppm (Phakopsora pachyrhizi) [%] | pest or weed control at 500 ppm [2] [%] | pest or weed control at 500 ppm (Fusarium culmorum) [%] | pest or weed control at 500 ppm (Fusarium graminearum) [%] | pest or weed control at 500 ppm (Leptosphaeria nodorum) [%] | pest or weed control at 500 ppm [3] [%] | pest or weed control at 500 ppm (Pyricularia oryzae) [%] | pest or weed control at 100 ppm (Venturia inaequalis) [%] | pest or weed control at 500 ppm (Alternaria brassicae; [17]) [%] | further results
1 | N#Cc1cncn1CC(O)(Cc1ccccc1Cl)C1(Cl)CC1 (stereo not drawn) [Example I-06, 1-[2-(1-chlorocyclopropyl)-3-(2-chlorophenyl)-2-hydroxypropyl]-1H-imidazole-5-carbonitrile] | 2.92 | 90 to 100 | 80 | 97 | 90 to 100 | 89 | 90 to 100 | 90 to 100 | 90 to 100 | 90 to 100 | 90 to 100 | 90 to 100 | 90 to 100 | 90 to 100 | 90 to 100 | 90 to 100 | 90 to 100 | 90 to 100 | 80 to 89 | – | pest or weed control at 500 ppm (Puccinia recondita; [8]): 94%; pest or weed control at 100 ppm (Pyrenophora teres; read-out: Efficacy in %): 86%; pest or weed control at 500 ppm (Pyrenophora teres; [10]): 93%; pest or weed control at 100 ppm (Septoria tritici; [11]): 98%; pest or weed control at 500 ppm (Septoria tritici; [12]): 100%; pest or weed control at 100 ppm (Uromyces appendiculatus; [15]): 100%; pest or weed control at 500 ppm (Uromyces appendiculatus; [16]): 100%
2 | OC(Cc1ccccc1Cl)(Cn1cncc1F)C1(Cl)CC1 (stereo not drawn) [Example I-16] | 1.94 | 90 to 100 | – | – | 80 to 89 | – | 90 to 100 | 90 to 100 | 90 to 100 | 90 to 100 | 90 to 100 | 90 to 100 | 90 to 100 | 90 to 100 | 80 to 89 | 90 to 100 | 90 to 100 | 90 to 100 | 90 to 100 | 90 to 100 | –
3 | OC(Cc1cc(F)ncc1Cl)(Cn1cncc1Cl)C1(Cl)CC1 (stereo not drawn) [Example I-18] | 2.01 | 90 to 100 | – | – | 90 to 100 | – | 90 to 100 | 90 to 100 | 90 to 100 | 90 to 100 | 90 to 100 | 90 to 100 | 90 to 100 | 80 to 89 | 90 to 100 | 90 to 100 | 90 to 100 | 90 to 100 | 90 to 100 | 70 to 79 | –
4 | N#Cc1cncn1CC(O)(Cc1ccccc1F)C1(Cl)CC1 (stereo not drawn) [Example I-34, 1-[2-(1-chlorocyclopropyl)-3-(2-fluorophenyl)-2-hydroxypropyl]-1H-imidazole-5-carbonitrile] | 2.64 | 90 to 100 | 94 | 100 | 90 to 100 | 94 | 90 to 100 | 90 to 100 | 90 to 100 | 90 to 100 | 90 to 100 | 90 to 100 | 90 to 100 | 90 to 100 | 90 to 100 | 90 to 100 | 90 to 100 | – | 90 to 100 | 90 to 100 | pest or weed control at 100 ppm (Alternaria brassicae; Example R1, rate of application 100 ppm, read-out: Efficacy in %): 58%; pest or weed control at 500 ppm (Alternaria brassicae; Example R1, rate of application 500 ppm, read-out: Efficacy in %): 92%; pest or weed control at 500 ppm (Puccinia recondita; [8]): 100%; pest or weed control at 100 ppm (Pyrenophora teres; read-out: Efficacy in %): 83%; pest or weed control at 500 ppm (Pyrenophora teres; [10]): 98%; pest or weed control at 100 ppm (Septoria tritici; [11]): 100%; pest or weed control at 500 ppm (Septoria tritici; [12]): 100%; pest or weed control at 100 ppm (Sphaerotheca fuliginea; Example R6, gherkin, 100 ppm, read-out: Efficacy in %): 100%; pest or weed control at 500 ppm (Sphaerotheca fuliginea; Example R6, gherkin, 500 ppm, read-out: Efficacy in %): 100%; pest or weed control at 100 ppm (Uromyces appendiculatus; [15]): 100%; pest or weed control at 500 ppm (Uromyces appendiculatus; [16]): 100%
